Results published in patent US11820870B2, “Photocontrolled dynamic covalent linkers for polymer networks” (Northwestern University, priority 2018, dated 2023).

Tests used:
[1] = Pseudo-first-order reversible esterification with pinacol (LCMS kinetics); format: physicochemical
Procedure: A small-molecule model compound, azobenzene 1, was first designed, in which the boronic acid was positioned ortho to the azo group (FIG. 5). Irradiation of (E)-1 with 365-nm light provided a 88:12 mixture of Z and E isomers. This mixture was subjected to excess pinacol in acetonitrile-water (1:1 v/v, 25° C.) to determine the apparent rates and equilibrium constants of boronic acid (1) esterification and boronic ester (2) hydrolysis for each isomer. While other 1,2- and 1,3-diols were hydrolyzed too quickly to be studied, the unusually slow rate of pinacol hydrolysis allowed the E and Z isomers to be resolved and their reaction kinetics to be monitored by high-performance liquid chromatography (HPLC; see Supporting Information (SI) for details).
After 8 hours, the reactions had reached equilibrium, with 39% conversion of (Z)-1 to (Z)-2 and only 9% conversion of (E)-1 to (E)-2 (FIG. 6A). Using a reversible pseudo-first-order kinetic model, it was determined that the esterification of (Z)-1 was 2.1 times faster than the esterification of (E)-1 (k1) (FIG. 6B, Table 1). The rates of hydrolysis could also be extracted from this model: (E)-2 underwent hydrolysis 2.0 times faster than (Z)-2 did (k−1). These apparent rate constants for hydrolysis were verified by hydrolyzing a mixture of (E)-2 and (Z)-2 under irreversible pseudo-first-order conditions (FIGS. 6C and 6D). Taken together, the apparent equilibrium to form boronic ester from boronic acid and pinacol is 4.3 times more favorable for the Z isomer relative to the E isomer. While convenient for small-molecule kinetic studies, the rate of pinacol ester formation is too slow to be practical for gelation. Thus, a less sterically hindered diol was used for hydrogel studies.
Stock solutions of (E)-1 or (E)-2 were prepared in acetonitrile at 800 μM. Serial dilutions were performed to obtain a final concentration of 12.5 μM. The solutions were directly injected onto the LCMS (Poroshell 120 column, EC-C18, 2.7 μm, 2.1×50 mm). Runs were ten minutes long with solvent gradient from 50:50 to 100:0 ACN:H2O in the first three minutes. Detection was performed at 254 nm with a variable-wavelength detector. The peak area for each concentration was recorded. A calibration curve was created. […] The concentration of the Z-isomer can be calculated from the known concentration of the E-isomer (based on the previously-generated calibration curve).
500 μL of a stock solution of 800 μM of (E)-1 was diluted with 500 μL of 80 mM of pinacol in DI water. The concentrations of (E)-1 and (E)-2 were monitored as a function of time using the above LCMS method. The observed rate constants of esterification (k1(E)) and hydrolysis (k−1(E)) were determined using the derivation shown below.
The data from the concentrations vs. time experiments was fit to the linear expression (1) for a reversible first order reaction and yields the slope denoted as equation (4). […] With the apparent equilibrium constant and slope known, the rates of hydrolysis can be determined with equation (5), and subsequently the rate of esterification can be determined.
500 μL of a stock solution of 800 μM of (E)-1 was irradiated with a 365 nm flashlight for 10 minutes to produce a mixture of (E)-1 and (Z)-1. The mixture was then diluted with 500 μL of a 80 mM pinacol solution in DI water, and the concentrations of (E)-2 and (Z)-2 were monitored as a function of time using the above LCMS method. […]

[2] = Pseudo-first-order irreversible hydrolysis of boronic ester (LCMS kinetics); format: physicochemical; conditions: obtained from the irreversible hydrolysis experiments; 1:1 ACN:H2O; average of three experiments
Procedure: After 8 hours, the reactions had reached equilibrium, with 39% conversion of (Z)-1 to (Z)-2 and only 9% conversion of (E)-1 to (E)-2 (FIG. 6A). Using a reversible pseudo-first-order kinetic model, it was determined that the esterification of (Z)-1 was 2.1 times faster than the esterification of (E)-1 (k1) (FIG. 6B, Table 1). The rates of hydrolysis could also be extracted from this model: (E)-2 underwent hydrolysis 2.0 times faster than (Z)-2 did (k−1). These apparent rate constants for hydrolysis were verified by hydrolyzing a mixture of (E)-2 and (Z)-2 under irreversible pseudo-first-order conditions (FIGS. 6C and 6D). […]
Stock solutions of (E)-1 or (E)-2 were prepared in acetonitrile at 800 μM. […] The peak area for each concentration was recorded. […] The concentration of the Z-isomer can be calculated from the known concentration of the E-isomer (based on the previously-generated calibration curve).
500 μL of a stock solution of 800 μM of (E)-2 was irradiated with a 365 nm flashlight for 10 minutes to produce a mixture of (E)-2 and (Z)-2. The mixture was then diluted with 500 μL of DI H2O and the concentration of (E)-2 and (Z)-2 was monitored as a function of time. The observed rate constants of hydrolysis k−1(E) and k−1(Z) were determined using the derivation shown below. […]

[3] = reversible esterification, 400 μM with 40 mM pinacol, 1:1 ACN:H2O, 25° C., average of three experiments

Structure (SMILES) | conversion of boronic acid to boronic ester at equilibrium ([1]; after 8 hours, excess pinacol, acetonitrile-water 1:1 v/v, 25° C.) [%] | Keq [a] apparent equilibrium constant [1, 3] | k1 [a] apparent rate constant of esterification [1, 3] | k−1 [a] apparent rate constant of hydrolysis ([1]; obtained from the reversible esterification experiment, 1:1 ACN:H2O, average of three experiments) | hydrolysis rate (k−1), times faster than (Z)-2 ([1]; ratio E isomer to Z isomer) [times] | k−1 [b] apparent rate constant of hydrolysis [2]
COC(=O)c1ccc(/N=N/c2ccccc2B(O)O)cc1 [(E)-1, (E)-(2-((4-(methoxycarbonyl)phenyl)diazinyl)phenyl)boronic acid] | 9 | 0.090 ± 0.016 | 2.56 ± 0.28 × 10^−5 s^−1 | – | – | –
COC(=O)c1ccc(/N=N/c2ccccc2B2OC(C)(C)C(C)(C)O2)cc1 [(E)-2, Methyl (E)-4-((2-(4,4,5,5-tetramethyl-1,3,2,-dioxaborolan-2-yl)phenyl)diazinyl)benzoate] | – | – | – | 2.76 ± 0.32 × 10^−4 s^−1 | 2.0 | 2.83 ± 0.06 × 10^−4 s^−1
